Reference: patent publication US20230190954A1, “COMPOSITION AND METHODS FOR TREATMENT OF PRIMARY CILIARY DYSKINESIA” (TRANSLATE BIO, INC., priority 2020, published 2023)

Experiments:
mouse lungs [1] = test: In vivo screen of cationic lipids: FFL mRNA-LNP pulmonary delivery, IVIS luciferase imaging; set-up: species or system male CD1 mice; conditions: for potency as determined by the average radiance detected in mouse lungs: FFL mRNA-LNP, single intratracheal administration, about 5 hours post-dose; for selection based on performance in the in vivo screen: about 150 cationic lipids tested; for suitability/performance in liposomes administered through pulmonary delivery via nebulization: mouse, in vivo
Protocol: In this example, various cationic lipids were tested for in vivo efficacy when mRNA encapsulated in lipid nanoparticles (mRNA-LNP) were administered to mice by pulmonary delivery. The cationic lipids were tested for both potency, as determined by levels of protein production, and tolerability, as determined by side effects associated with clearance and metabolism.
About 150 cationic lipids were tested. (FIG. 9). Each cationic lipid was used in preparing lipid nanoparticles encapsulating mRNA encoding firefly luciferase protein (FFL mRNA) according to methods known in the art. For example, suitable methods for mRNA encapsulation include methods described in International Publication Nos. WO2016/004318 and WO 2018/089801, which is hereby incorporated by reference in its entirety. The tested lipid nanoparticles comprised a lipid component consisting of a cationic lipid, a non-cationic lipid (DOPE), a PEG-modified lipid (DMG-PEG2K), and optionally cholesterol.
Lipid nanoparticle formulations comprising FFL mRNA were administered to male CD1 mice by a single intratracheal administration via nebulization using a Microsprayer®. At approximately 5 hours post-dose, the animals were dosed with luciferin by intraperitoneal injection and all animals were imaged using an IVIS imaging system to measure luciferase production in the lung. […] Some cationic lipids remarkably had greater than 50-fold increase in pulmonary protein expression as compared to other cationic lipids.

mouse lungs [2] = test: as above; set-up: species or system male CD1 mice; conditions: pulmonary-delivered (e.g., nebulized) FFL mRNA in LNP with this cationic lipid, threshold lines in FIG. 9

SMILES | potency as determined by the average radiance detected in mouse lungs (mouse lungs [1]) | selection based on performance in the in vivo screen (mouse lungs [1]) | suitability/performance in liposomes administered through pulmonary delivery via nebulization (mouse lungs [1]) | historical radiance/expression of pulmonary-delivered FFL mRNA-LNP (mouse lungs [2])
CCCCC/C=C\C/C=C\CCCCCCCC(=O)OCC(COC(=O)CCCCCCC/C=C\C/C=C\CCCCC)(COC(=O)CCCCCCC/C=C\C/C=C\CCCCC)NCCS(=O)(=O)NCCN(C)C [GL-TES-SA-DME-E18-2, 2-((2-(N-(2-(dimethylamino)ethyl)sulfamoyl)ethyl)amino)-2-((((9Z,12Z)-octadeca-9,12-dienoyl)oxy)methyl)propane-1,3-diyl (9Z,9′Z,12Z,12′Z)-bis(octadeca-9,12-dienoate)] | particularly high potency | selected for further investigation | performed particularly well | 
CCCCC/C=C\C/C=C\CCCCCCCC(=O)OCC(COC(=O)CCCCCCC/C=C\C/C=C\CCCCC)(COC(=O)CCCCCCC/C=C\C/C=C\CCCCC)NCCS(=O)(=O)NCCCN(C)C [GL-TES-SA-DMP-E18-2] | particularly high potency | selected for further investigation | performed particularly well | 
CCCCCCCCC(O)CN(CCCC(=O)OCCN1CC(C)N(CCOC(=O)CCCN(CC(O)CCCCCCCC)CC(O)CCCCCCCC)CC1C)CC(O)CCCCCCCC (stereo not shown) [HEP-E3-E10] | particularly high potency | selected for further investigation | performed particularly well | 
CCCCCCCCC(O)CN(CCCCC(=O)OCCN1CC(C)N(CCOC(=O)CCCCN(CC(O)CCCCCCCC)CC(O)CCCCCCCC)CC1C)CC(O)CCCCCCCC (stereo not shown) [HEP-E4-E10] | particularly high potency | selected for further investigation | performed particularly well | 
CC(C)CCCC(C)C1CCC2C3CC=C4CC(SSCCNC(=N)N)CCC4(C)C3CCC12C (stereo not shown) [HGT4002] |  | selected for further investigation |  | 
CC(C)CCCC(C)[C@H]1CCC2C3CC=C4C[C@@H](OC(=O)CCc5c[nH]cn5)CC[C@]4(C)C3CC[C@@]21C (stereo partly shown) [ICE, imidazole cholesterol ester] |  |  |  | around 10^4 p/s/cm^2sr
CCCCCCCCCCCCC(O)CN(CCCC(=O)Oc1c(OC)cc(C(=O)OCCCN(C)C)cc1OC)CC(O)CCCCCCCCCCCC (stereo not shown) [SY-3-E14-DMAPr] |  | selected for further investigation |  | 
CCCCCCCCOC(=O)CC(CC(=O)OCCCCCCCC)(OC(=O)CCN(C)C)C(=O)OCCCCCCCC [TL1-01D-DMA, trioctyl 2-((3-(dimethylamino)propanoyl)oxy)propane-1,2,3-tricarboxylate] | particularly high potency | selected for further investigation | performed particularly well | 
CCCCCCCCCCCCCCOC(=O)CC(CC(=O)OCCCCCCCCCCCCCC)(OC(=O)CCN(C)C)C(=O)OCCCCCCCCCCCCCC [TL1-04D-DMA] | particularly high potency | selected for further investigation | performed particularly well | 
CCCCCCCC(=O)OCCCCCCCCCOC(=O)CC(CC(=O)OCCCCCCCCCOC(=O)CCCCCCC)(OC(=O)CCN(C)C)C(=O)OCCCCCCCCCOC(=O)CCCCCCC [TL1-10D-DMA] |  | selected for further investigation |  | 
